In patent EP0100673A2, “A method of enhancing neurofiber regrowth” (THE RESEARCH FOUNDATION OF STATE UNIVERSITY OF NEW YORK, priority 1982, dated 1984):

Legend:
Format in all cases: in vivo, rat
sciatic nerve [1] = assay: Counts of myelinated and unmyelinated axons 5.0 mm distal to repair by electron microscopy; conditions: Electron Microscopy; for #Myelinated Axons / #Unmyelinated Axons: 5.0mm. Distal to Repair, 12 mg/kg in 5% DMSO, bath + i.m. twice weekly
Description: (§1) lwenty raty art anenthetizve with sel rompun (0.5 cc total volume). The right sciatic nerve is exposed and severed with microneuroscissors, and subsequently repaired microsurgically with 6-8 circumferential microsutures using 10-0 nylon. Immediately following surgery the treated animals receive 12 mg/kg Ac leupeptin in 5% DMSO (dimethylsulphoxide) as a bath on their sciatic nerve, 0.25 cc. total volume. Then the treated animals are injected intramuscularly in right hindlimb with 0.25 cc of a solution containing 12 mg/kg Ac leupeptin in 5% DMSO. Control animals receive the same surgical treatment, but the bath and intramuscular injection consist only of the solvent and 5% DMSO.
(§2) Thereafter, treated animals are injected twice weekly in the operated hindlimb with 12 mg/kg Ac leupeptin in 5% DMSO (0.25 cc total volume) for periods of 1 week, 1 month, two months, three months - and six months. Control animals are injected with 0.25 cc of 5% DMSO twice weekly in the operated hindlimb for the same time period.
(§3) Two treated and two control animals are assigned to each of the stated time periods.
(§4) A ten mm. portion of the repaired sciatic nerve is excised from each animal. This is fixed in 3.0% glutaraldehyde in 0.1 M sodium cacodylate, pH 7.3, overnight for electron microscopy. After post-fixation in 1.0% osmium tetroxide, ethanol dehydration and embedding in Polybed 812, both thick (1 micron) and thin (500 A°) transverse sections are cut on a ultramicrotome. Portions of the excised muscles receive similar preparation for electron microscopy.
(§5) Thick sections of the sciatic nerve are placed on microscope slots stained with toluidine blue and photographed at a constant magnification in the light microscope. Thin sections of both nerve and muscles are placed on 300 mesh copper grid calm, stained with uranyl acetate and lead citrate and photographed using a Hitachi HU-12 electron microscope.

sciatic nerve [2] = assay: Counts of myelinated axons 5.0 mm proximal to repair by light microscopy; conditions: for Counts of Myelinated Axons - 5.0mm. Proximal to Repair by Light Microscopy 1.0 X 10^5 µm^2 - of Area: 12 mg/kg in 5% DMSO, bath + i.m. twice weekly; for % Difference: treated vs. control
Description: as §1, §2, §3, §4, §5

[3] = tested on: muscles of the operated hindlimb; assay: Myofiber diameter by light microscopy after sciatic nerve severing and microsurgical repair; conditions: for Average Myofiber Diameter (µm) by Light Microscopy: 12 mg/kg in 5% DMSO, bath + i.m. twice weekly; for % Difference Treated vs. Control: myofiber diameter
Description: as §1, §2, §3
All animals are sacrified by an overdose of pentobarbital, 1.0 cc total volume. The gastro- cnemius, soleus and extensor digitorum longus muscles of the operated hindlimb are execised from origin to insertion, weighed and then frozen in isopentane in liquid nitrogen […]. For light microscopy, cryostat sections are cut, placed on slides and stained with hematoxylin and eosin and/or ATPase histochemistry at pH's of 4.3 and 10.4. Myofiber diameters are determined by photographing hematoxylin and eosin sections at a constant magnification in the light microscope.

With CC(=O)N[C@@H](CC(C)C)C(=O)N[C@@H](CC(C)C)C(=O)N[C@H](C=O)CCCNC(=N)N [Ac leupeptin, acetyl-L-leu-L-leu-L-argininal] the “#Myelinated Axons” value (sciatic nerve [1]; One month treated) was 1.2 Per 200 μm^2 of Area, the “#Unmyelinated Axons” value (sciatic nerve [1]; One month treated) was 8 Per 200 μm^2 of Area and the “#Myelinated Axons” value (sciatic nerve [1]; One week treated) was 4.25 Per 200 μm^2 of Area. The “#Unmyelinated Axons” value (sciatic nerve [1]; One week treated) was 11.0 Per 200 μm^2 of Area, the “#Myelinated Axons” value (sciatic nerve [1]; Six Month Treated) was 5 Per 200 μm^2 of Area and the “#Unmyelinated Axons” value (sciatic nerve [1]; Six Month Treated) was 8.7 Per 200 μm^2 of Area. For the same molecule, the “#Myelinated Axons” value (sciatic nerve [1]; Three month treated) was 9.0 Per 200 μm^2 of Area, the “#Unmyelinated Axons” value (sciatic nerve [1]; Three month treated) was 12.9 Per 200 μm^2 of Area and the “#Myelinated Axons” value (sciatic nerve [1]; Two Month Treated) was 6 Per 200 μm^2 of Area. The “#Unmyelinated Axons” value (sciatic nerve [1]; Two Month Treated) was 18 Per 200 μm^2 of Area, the “% Difference Treated vs. Control” value (sciatic nerve [1]; #Myelinated Axons distal, One month) was 25% and the “% Difference Treated vs. Control” value (sciatic nerve [1]; #Myelinated Axons distal, One week) was 53%. The “% Difference Treated vs. Control” value (sciatic nerve [1]; #Myelinated Axons distal, Six Month) was 1%, the “% Difference Treated vs. Control” value (sciatic nerve [1]; #Myelinated Axons distal, Three month) was 58% and the “% Difference Treated vs. Control” value (sciatic nerve [1]; #Myelinated Axons distal, Two Month) was 0%. For the same molecule, the “% Difference Treated vs. Control” value (sciatic nerve [1]; #Unmyelinated Axons distal, One month) was 70%, the “% Difference Treated vs. Control” value (sciatic nerve [1]; #Unmyelinated Axons distal, One week) was greater than 100% and the “% Difference Treated vs. Control” value (sciatic nerve [1]; #Unmyelinated Axons distal, Six Month) was “+30%”. The “% Difference Treated vs. Control” value (sciatic nerve [1]; #Unmyelinated Axons distal, Three month) was 61%, the “% Difference Treated vs. Control” value (sciatic nerve [1]; #Unmyelinated Axons distal, Two Month) was 50% and the “Counts of Myelinated Axons - 5.0mm. Proximal to Repair by Light Microscopy 1.0 X 10^5 µm^2 - of Area” value (“Counts of Myelinated Axons” below) (sciatic nerve [2]; One Month Treated) was 1162 1.0 X 10^5 µm^2 - of Area. For the same molecule, the “Counts of Myelinated Axons” value (sciatic nerve [2]; One Week Treated) was 1089 1.0 X 10^5 µm^2 - of Area, the “Counts of Myelinated Axons” value (sciatic nerve [2]; Six Month Treated) was 1748 1.0 X 10^5 µm^2 - of Area and the “Counts of Myelinated Axons” value (sciatic nerve [2]; Three Month Treated) was 2200 1.0 X 10^5 µm^2 - of Area. For the same molecule, the “Counts of Myelinated Axons” value (sciatic nerve [2]; Two Month Treated) was 1111 1.0 X 10^5 µm^2 - of Area, the “% Difference Treated Vs. Control” value (sciatic nerve [2]; myelinated axons proximal, light microscopy, One Month) was “+7%” and the “% Difference Treated vs. Control” value (sciatic nerve [2]; myelinated axons proximal, light microscopy, One Week) was “+16%”. For the same molecule, the “% Difference Treated vs. Control” value (sciatic nerve [2]; myelinated axons proximal, light microscopy, Six Month) was “+30%”, the “% Difference” value (sciatic nerve [2]; myelinated axons proximal, light microscopy, Three Month) was “+46%” and the “% Difference” value (sciatic nerve [2]; myelinated axons proximal, light microscopy, Two Month) was “+8%”. For the same molecule, the “Average Myofiber Diameter (µm) by Light Microscopy” value (“Average Myofiber Diameter (µm)” below) ([3]; One Month Treated, E.D.L.) was 34.1 µm, the “Average Myofiber Diameter (µm)” value ([3]; One Month Treated, GASTROCNEMIUS) was 34.5 µm and the “Average Myofiber Diameter (µm)” value ([3]; One Month Treated, SOLEUS) was 39.4 µm. For the same molecule, the “Average Myofiber Diameter (µm)” value ([3]; One Week Treated, E.D.L.) was 44.6 µm, the “Average Myofiber Diameter (µm)” value ([3]; One Week Treated, GASTROCNEMIUS) was 62.3 µm and the “Average Myofiber Diameter (µm)” value ([3]; One Week Treated, SOLEUS) was 49.2 µm. For the same molecule, the “Average Myofiber Diameter (µm)” value ([3]; Six Month Treated, E.D.L.) was 75.3 µm, the “Average Myofiber Diameter (µm)” value ([3]; Six Month Treated, GASTROCNEMIUS) was 73.1 µm and the “Average Myofiber Diameter (µm)” value ([3]; Six Month Treated, SOLEUS) was 79.5 µm. For the same molecule, the “Average Myofiber Diameter (µm)” value ([3]; Three Month Treated, E.D.L.) was 44.3 µm, the “Average Myofiber Diameter (µm)” value ([3]; Three Month Treated, GASTROCNEMIUS) was 57.2 µm and the “Average Myofiber Diameter (µm)” value ([3]; Three Month Treated, SOLEUS) was 47.9 µm. For the same molecule, the “Average Myofiber Diameter (µm)” value ([3]; Two Month Treated, E.D.L.) was 28.9 µm, the “Average Myofiber Diameter (µm)” value ([3]; Two Month Treated, GASTROCNEMIUS) was 35.4 µm and the “Average Myofiber Diameter (µm)” value ([3]; Two Month Treated, SOLEUS) was 42.3 µm. For the same molecule, the “% Difference Treated vs. Control” value ([3]; One Month, E.D.L.) was “+7%”, the “% Difference Treated vs. Control” value ([3]; One Month, GASTROCNEMIUS) was “+3%” and the “% Difference Treated vs. Control” value ([3]; One Month, SOLEUS) was “+24%”. The “% Difference Treated vs. Control” value ([3]; One Week, E.D.L.) was “+5%”, the “% Difference Treated vs. Control” value ([3]; One Week, GASTROCNEMIUS) was “+23%” and the “% Difference Treated vs. Control” value ([3]; One Week, SOLEUS) was “+9%”.
